Legend:
[1] = tested on: ECHCG; experiment: Herbicidal pre-emergence action (Table A2); type: in vivo, Echinochloa crus-galli; conditions: visual grading after ca. 3 weeks
Method in brief: (§1)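 In each pot of sandy loam, seed of a single monocot weed species was sown alongside seed of a single dicot weed species, and the seed was covered with soil.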

[2] = tested on: LOLRI; experiment: Herbicidal pre-emergence action (Table A3); type: in vivo, Lolium rigidum; conditions: visual grading after ca. 3 weeks
Method in brief: as §1

[3] = tested on: ECHCG; experiment: Herbicidal post-emergence action (Table B3); type: in vivo, Echinochloa crus-galli; conditions: application rate 1280 g/ha, rated visually after about 3 weeks
Method in brief: (§2)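 Visual rating against untreated plants (0% = as control, 100% = dead) made roughly 3 weeks after application. Weed species were grown in sandy loam pots under greenhouse conditions and sprayed at the one-leaf stage, 2–3 weeks post-sowing.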

[4] = tested on: KCHSC; experiment: Herbicidal post-emergence action (Table B4); type: in vivo, Kochia scoparia; conditions: application rate 1280 g/ha; rated visually after about 3 weeks
Description: (§3) Seeds of mono- and dicotyledonous weed plants were placed in plastic pots in sandy loam soil (doubly sown with in each case one species of mono- or dicotyledonous weed plants per pot), covered with soil and cultivated in a greenhouse under controlled growth conditions. 2 to 3 weeks after sowing, the test plants were treated at the one-leaf stage. […] After the test plants had been kept in the greenhouse under optimum growth conditions for about 3 weeks, the activity of the preparations was rated visually in comparison to untreated controls. For example, 100% activity = the plants have died, 0% activity = like control plants.

[5] = tested on: LOLRI; experiment: Herbicidal post-emergence action (Table B5); type: in vivo, Lolium rigidum; conditions: application rate 1280 g/ha; rated visually after about 3 weeks
Description: as §3

[6] = tested on: POAAN; experiment: Herbicidal post-emergence action (Table B7); type: in vivo, Poa annua; conditions: application rate 1280 g/ha
Method in brief: as §2

[7] = tested on: VERPE; experiment: Herbicidal post-emergence action (Table B10); type: in vivo, Veronica persica; conditions: application rate 1280 g/ha
Method in brief: as §2

[8] = tested on: AMARE; experiment: Herbicidal post-emergence action (Table B11); type: in vivo, Amaranthus retroflexus; conditions: application rate 1280 g/ha
Description: as §3

[9] = tested on: MATIN; experiment: Herbicidal pre-emergence action (Table A4); type: in vivo, Matricaria inodora; conditions: visual grading after ca. 3 weeks
Method in brief: as §1

[10] = tested on: SETVI; experiment: Herbicidal pre-emergence action (Table A5); type: in vivo, Setaria viridis; conditions: visual grading after ca. 3 weeks
Method in brief: as §1

[11] = tested on: STEME; experiment: Herbicidal pre-emergence action (Table A6); type: in vivo, Stellaria media; conditions: visual grading after ca. 3 weeks
Method in brief: as §1

[12] = tested on: KCHSC; experiment: Herbicidal pre-emergence action (Table A10); type: in vivo, Kochia scoparia; conditions: visual grading after ca. 3 weeks
Method in brief: as §1

[13] = tested on: POAAN; experiment: Herbicidal pre-emergence action (Table A7); type: in vivo, Poa annua; conditions: application rate 320 g/ha; visual grading after ca. 3 weeks
Method in brief: as §1

[14] = tested on: ALOMY; experiment: Herbicidal pre-emergence action (Table A9); type: in vivo, Alopecurus myosuroides; conditions: application rate 1280 g/ha; visual grading after ca. 3 weeks
Method in brief: as §1

[15] = tested on: VERPE; experiment: Herbicidal pre-emergence action (Table A11); type: in vivo, Veronica persica; conditions: application rate 1280 g/ha; visual grading after ca. 3 weeks
Method in brief: as §1

[16] = tested on: DIGSA; experiment: Herbicidal pre-emergence action (Table A12); type: in vivo, Digitaria sanguinalis; conditions: application rate 320 g/ha; visual grading after ca. 3 weeks
Method in brief: as §1

[17] = tested on: MATIN; experiment: Herbicidal post-emergence action (Table B6); type: in vivo, Matricaria inodora; conditions: application rate 1280 g/ha; rated visually after about 3 weeks
Method in brief: as §2

[18] = tested on: SETVI; experiment: Herbicidal post-emergence action (Table B8); type: in vivo, Setaria viridis; conditions: application rate 1280 g/ha
Method in brief: as §2

[19] = tested on: ABUTH; experiment: Herbicidal pre-emergence action, section C (Table C1); type: in vivo, Abutilon theophrasti; conditions: application rate 320 g/ha; visual grading after ca. 3 weeks
Source text: (§5) Seeds of mono- and dicotyledonous weed plants and crop plants were sown, in plastic or organic planting pots, in sandy loam and covered with soil. The compounds according to the invention, formulated in the form of wettable powders (WP) or as emulsifiable concentrates (EC), were applied to the surface of the covering soil as aqueous suspension or emulsion, with the addition of 0.5% of an additive, at an application rate of 600 1 of water/ha (converted). Following treatment, the pots were placed in a greenhouse and kept under optimum growth conditions for the test plants.

[20] = tested on: ALOMY; experiment: Herbicidal pre-emergence action, section C (Table C2); type: in vivo, Alopecurus myosuroides; conditions: application rate 80 g/ha; visual grading after ca. 3 weeks
[21] = tested on: DIGSA; experiment: Herbicidal pre-emergence action, section C (Table C5); type: in vivo, Digitaria sanguinalis; conditions: application rate 320 g/ha; visual grading after ca. 3 weeks
[22] = tested on: ECHCG; experiment: Herbicidal pre-emergence action, section C (Table C6); type: in vivo, Echinochloa crus-galli; conditions: application rate 320 g/ha; visual grading after ca. 3 weeks
[23] = tested on: LOLRI; experiment: Herbicidal pre-emergence action, section C (Table C7); type: in vivo, Lolium rigidum; conditions: application rate 320 g/ha; visual grading after ca. 3 weeks
[24] = tested on: MATIN; experiment: Herbicidal pre-emergence action, section C (Table C8); type: in vivo, Matricaria inodora; conditions: application rate 320 g/ha; visual grading after ca. 3 weeks
[25] = tested on: POLCO; experiment: Herbicidal pre-emergence action, section C (Table C9); type: in vivo, Polygonum convolvulus; conditions: application rate 320 g/ha; visual grading after ca. 3 weeks
Source text: as §5

[26] = tested on: SETVI; experiment: Herbicidal pre-emergence action, section C (Table C10); type: in vivo, Setaria viridis; conditions: application rate 320 g/ha; visual grading after ca. 3 weeks
[27] = tested on: VERPE; experiment: Herbicidal pre-emergence action, section C (Table C11); type: in vivo, Veronica persica; conditions: application rate 320 g/ha; visual grading after ca. 3 weeks
[28] = tested on: VIOTR; experiment: Herbicidal pre-emergence action, section C (Table C12); type: in vivo, Viola tricolor; conditions: application rate 80 g/ha; visual grading after ca. 3 weeks
Source text: as §5

[29] = tested on: ZEAMX; experiment: Pre-emergence effects on crop plants (Table D1); type: in vivo, Zea mays; conditions: crop plant; application rate 320 g/ha; visual grading after ca. 3 weeks
[30] = tested on: TRZAS; experiment: Pre-emergence effects on crop plants (Table D2); type: in vivo, Triticum aestivum; conditions: crop plant; application rate 80 g/ha; visual grading after ca. 3 weeks
[31] = tested on: ECHCG; experiment: Herbicidal post-emergence action, section E (Table E5); type: in vivo, Echinochloa crus-galli; conditions: application rate 320 g/ha; assessed visually after ca. 3 weeks
Source text: (§4) 2 to 3 weeks after sowing, the test plants were sprayed in the single-leaf stage.

[32] = tested on: SETVI; experiment: Herbicidal post-emergence action, section E (Table E8); type: in vivo, Setaria viridis; conditions: application rate 320 g/ha; assessed visually after ca. 3 weeks
Source text: as §4

[33] = tested on: ZEAMX; experiment: Post-emergence effects on crop plants (Table F1); type: in vivo, Zea mays; conditions: application rate 80 g/ha, crop plant ZEAMX
Source text: as §4

[34] = tested on: TRZAS; experiment: Post-emergence effects on crop plants (Table F2); type: in vivo, Triticum aestivum; conditions: application rate 320 g/ha, crop plant TRZAS
Source text: as §4

[35] = tested on: ORYZA; experiment: Post-emergence effects on crop plants (Table F3); type: in vivo, Oryza sativa; conditions: application rate 320 g/ha, crop plant ORYZA
Source text: as §4

[36] = tested on: ORYZA; experiment: Pre-emergence effects on crop plants (Table D3); conditions: crop plant; application rate 80 g/ha; visual grading after ca. 3 weeks

## O=C1N(Cc2cccnc2C(F)(F)F)CCCC12CCCN(Cc1cccnc1C(F)(F)F)C2=O [I-184, (+)-2,8-bis{[2-(trifluoromethyl)pyridin-3-yl]methyl}-2,8-diazaspiro[5.5]undecane-1,7-dione]
[1]; application rate 1280 g/ha
  pre-emergence activity against ECHCG: 100%
[2]; Lolium rigidum, pre-emergence, 504 h, application rate 1280 g/ha, read-out: pre-emergence activity against LOLRI
  pest or weed control at 1280 g/ha: 90%
[3]; Echinochloa crus-galli, post-emergence, 504 h, read-out: post-emergence activity against ECHCG
  pest or weed control at 1280 g/ha: 90%
[4]
  post-emergence activity against KCHSC: 90%
[5]
  post-emergence activity against LOLRI: 90%
[6]
  post-emergence activity against POAAN: 90%
[7]
  post-emergence activity against VERPE: 90%
[8]
  post-emergence activity against AMARE: 90%

## O=C1N(Cc2cccc(F)c2F)CCC12CCN(Cc1cccc(F)c1F)C2=O (racemic) [I-090]
[1]; application rate 1280 g/ha
  pre-emergence activity against ECHCG: 100%
[2]; application rate 1280 g/ha
  pre-emergence activity against LOLRI: 90%
[9]; application rate 1280 g/ha
  pre-emergence activity against MATIN: 90%
[10]; application rate 1280 g/ha
  pre-emergence activity against SETVI: 90%
[11]; application rate 1280 g/ha
  pre-emergence activity against STEME: 90%
[12]; application rate 1280 g/ha
  pre-emergence activity against KCHSC: 90%
[4]
  post-emergence activity against KCHSC: 90%

## O=C1N(Cc2ccccc2)CCC12CCCN(Cc1cccc(F)c1F)C2=O (racemic) [I-028]
[1]; application rate 320 g/ha
  pre-emergence activity against ECHCG: 100%
[2]; application rate 320 g/ha
  pre-emergence activity against LOLRI: 100%
[9]; application rate 320 g/ha
  pre-emergence activity against MATIN: 90%
[10]; application rate 320 g/ha
  pre-emergence activity against SETVI: 100%
[11]; application rate 320 g/ha
  pre-emergence activity against STEME: 90%
[13]
  pre-emergence activity against POAAN: 100%
[14]
  pre-emergence activity against ALOMY: 90%
[12]; application rate 320 g/ha
  pre-emergence activity against KCHSC: 90%
[15]
  pre-emergence activity against VERPE: 90%
[16]
  pre-emergence activity against DIGSA: 90%
[3]
  post-emergence activity against ECHCG: 90%
[17]
  post-emergence activity against MATIN: 90%
[18]
  post-emergence activity against SETVI: 90%
[19]
  pre-emergence activity against ABUTH: 90%
[20]
  pre-emergence activity against ALOMY: 90%
[21]
  pre-emergence activity against DIGSA: 100%
[22]
  pre-emergence activity against ECHCG: 100%
[23]
  pre-emergence activity against LOLRI: 100%
[24]
  pre-emergence activity against MATIN: 80%
[25]
  pre-emergence activity against POLCO: 90%
[26]
  pre-emergence activity against SETVI: 100%
[27]
  pre-emergence activity against VERPE: 90%
[28]
  pre-emergence activity against VIOTR: 90%
[29]
  pre-emergence activity against ZEAMX: 0%
[30]
  pre-emergence activity against TRZAS: 20%
[31]
  post-emergence activity against ECHCG: 80%
[32]
  post-emergence activity against SETVI: 80%
[33]
  post-emergence activity against ZEAMX: 0%
[34]
  post-emergence activity against TRZAS: 0%
[35]
  post-emergence activity against ORYZA: 0%
[36]
  pre-emergence activity against ORYZA: 0%

— patent EP4273147A1, “SUBSTITUTED SPIROLACTAMS, SALTS THEREOF AND THEIR USE AS HERBICIDALLY ACTIVE SUBSTANCES” (Bayer Aktiengesellschaft, priority 2022, dated 2023)
